In the NIST ThermoML archive (doi:10.1016/j.tca.2015.08.013):

Settings: for mass density / kinematic viscosity / speed of sound / vapor or sublimation pressure: Liquid; for mass density: Vibrating tube method; for kinematic viscosity / speed of sound: 101.33 kPa; for kinematic viscosity: Capillary tube (Ostwald / Ubbelohde) method; for speed of sound: Sing-around technique in a fixed-path interferometer; for vapor or sublimation pressure: Ebulliometric method (Recirculating still); for surface tension liquid-gas: Drop volume

Cc1ccc(C)o1 [2,5-dimethylfuran]
Settings	mass density [kg/m3]
313.15 K, 100 kPa	879.93
313.15 K, 2500 kPa	882.45
313.15 K, 5000 kPa	885.02
313.15 K, 7500 kPa	887.51
313.15 K, 10000 kPa	889.95
313.15 K, 20000 kPa	899.05
313.15 K, 30000 kPa	907.41
313.15 K, 40000 kPa	915.12
313.15 K, 50000 kPa	922.3
313.15 K, 60000 kPa	928.9
315.65 K, 99 kPa	877.195
318.15 K, 99 kPa	874.437
318.15 K, 100 kPa	874.44
318.15 K, 2500 kPa	877.03
318.15 K, 5000 kPa	879.68
318.15 K, 7500 kPa	882.27
318.15 K, 10000 kPa	884.79
318.15 K, 20000 kPa	894.18
318.15 K, 30000 kPa	902.74
318.15 K, 40000 kPa	910.6
318.15 K, 50000 kPa	917.91
318.15 K, 60000 kPa	924.74
320.65 K, 99 kPa	871.651
323.15 K, 99 kPa	868.85
323.15 K, 100 kPa	868.85
323.15 K, 2500 kPa	871.55
323.15 K, 5000 kPa	874.3
323.15 K, 7500 kPa	876.94
323.15 K, 10000 kPa	879.54
323.15 K, 20000 kPa	889.25
323.15 K, 30000 kPa	898.07
323.15 K, 40000 kPa	906.13
323.15 K, 50000 kPa	913.67
323.15 K, 60000 kPa	920.58
325.65 K, 99 kPa	866.06
328.15 K, 99 kPa	863.248
328.15 K, 100 kPa	863.25
328.15 K, 2500 kPa	866.05
328.15 K, 5000 kPa	868.91
328.15 K, 7500 kPa	871.68
328.15 K, 10000 kPa	874.38
328.15 K, 20000 kPa	884.36
328.15 K, 30000 kPa	893.38
328.15 K, 40000 kPa	901.61
328.15 K, 50000 kPa	909.29
328.15 K, 60000 kPa	916.43
330.65 K, 99 kPa	860.418
333.15 K, 99 kPa	857.577
333.15 K, 100 kPa	857.58
333.15 K, 2500 kPa	860.47
333.15 K, 5000 kPa	863.42
333.15 K, 7500 kPa	866.28
333.15 K, 10000 kPa	869.07
333.15 K, 20000 kPa	879.4
333.15 K, 30000 kPa	888.7
333.15 K, 40000 kPa	897.22
333.15 K, 50000 kPa	905.17
333.15 K, 60000 kPa	912.4
335.65 K, 99 kPa	854.721
338.15 K, 99 kPa	851.85
338.15 K, 100 kPa	851.85
338.15 K, 2500 kPa	854.88
338.15 K, 5000 kPa	857.96
338.15 K, 7500 kPa	860.93
338.15 K, 10000 kPa	863.81
338.15 K, 20000 kPa	874.45
338.15 K, 30000 kPa	884.02
338.15 K, 40000 kPa	892.61
338.15 K, 50000 kPa	900.74
338.15 K, 60000 kPa	908.17

Settings	kinematic viscosity [m2/s]	speed of sound [m/s]	surface tension liquid-gas [mN/m]	vapor or sublimation pressure [kPa]
313.15 K	4.57e-07	1130.7	–	–
314.61 K	–	–	–	14.8
315.65 K	4.5e-07	1121.2	22.7	–
318.15 K	4.4e-07	1109.5	22.29	–
319.27 K	–	–	–	18.09
320.65 K	4.3e-07	1100	21.97	–
323.15 K	4.23e-07	1088.5	21.69	–
324.99 K	–	–	–	22.86
325.65 K	4.12e-07	1078.7	21.29	–
328.09 K	–	–	–	26.07
328.15 K	4.03e-07	1067.6	20.95	–
330.65 K	3.95e-07	1057.5	20.58	–
332.43 K	–	–	–	30.95
333.15 K	3.89e-07	1046.9	20.34	–
335.48 K	–	–	–	34.85
335.65 K	3.8e-07	1036.2	20.01	–
338.15 K	3.72e-07	1029.2	19.65	–
338.4 K	–	–	–	38.81
340.95 K	–	–	–	42.52
343.11 K	–	–	–	46.09
345.85 K	–	–	–	50.77
348.13 K	–	–	–	55.05
350.87 K	–	–	–	60.51
352.82 K	–	–	–	64.61
354.3 K	–	–	–	68.12
356.1 K	–	–	–	72.15
357.87 K	–	–	–	76.61
359.42 K	–	–	–	80.63
361.09 K	–	–	–	85.02
362.46 K	–	–	–	88.86
363.39 K	–	–	–	91.39
364.36 K	–	–	–	94.28
365.26 K	–	–	–	97.05
366.7 K	–	–	–	101.33
